This is an account of results in US12409172B2, “Dosage regimen” (UNION therapeutics A/S, priority 2023, dated 2025).

This assay deals with adults with moderate-to-severe plaque-type psoriasis. As to the kind of experiment: Phase 2b dose-ranging study in psoriasis (Example 3): efficacy (PASI), incl. body-weight sub-group and post-hoc analysis. The assay is classed as in vivo, human. The source says:
• Percentage change in Psoriasis […] and Severity Index (PASI) score from Baseline at Week 16. Key Secondary Endpoints • Patients achieving 75% reduction in PASI (PASI75) response at Week 16. • Patients achieving a score of Clear (0) or Almost Clear (1) and an at least 2-point improvement in Investigator Global Assessment (IGA) at Week 16. […] Safety Endpoints: • The occurrence, severity, and seriousness of treatment-emergent adverse events (TEAEs) reported over the 16-week Treatment Period and the 4-week Follow-up Period. • Changes from Baseline in physical examination; vital sign measurements (body temperature, respiration rate, heart rate, and systolic and diastolic blood pressure measurements); and body weight over the 16-week Treatment Period and the 4-week Follow-up Period. • Changes from Baseline in electrocardiogram (ECG) findings over the 16-week Treatment Period and the 4-week Follow-up Period. • Changes from Baseline in safety laboratory values (haematology, serum chemistry, and urinalysis) over the 16-week Treatment Period and the 4-week Follow-up Period. • Hospital Anxiety and Depression Scale at each visit except Week 2. • Columbia-Suicide Severity Rating Scale (C-SSRS) at each visit except Weeks 1 and 2. Exploratory Endpoints: • Change from Baseline in Physician's Global Assessment of Fingernails (PGA-F) at Week 16. • Change in Scalp-Specific Investigator Global Assessment (ss-IGA) from Baseline at Week 16 in the subgroup of patients with Baseline score of at least 2 (mild scalp psoriasis). • Change from Baseline of scalp itch Numeric Rating Scale (NRS) at Week 16 in the subgroup of patients with Baseline score of at least 4 on the 11-point NRS. • Change from Baseline in joint pain NRS at Week 16 in patients with psoriatic arthritis (PsA) and a Baseline joint pain score of at least 4. • Change in cardiovascular risk factors at Week 16. The following parameters will be collected: weight, body mass index, waist and hip circumferences, blood pressure, fasting serum glucose, triglycerides, cholesterol (total and high-density lipoprotein/low-density lipoprotein fractions), and C-reactive protein. • Change from Baseline in skin biomarkers at Week 16 collected via tape stripping and analysed using proteomic methods. • Plasma levels of the drug and its metabolites at scheduled visits. Study Design
A multicentre, randomized, double-blind, placebo-controlled, parallel group, Phase 2b dose-ranging study designed to assess the efficacy and safety of modified-release orismilast compared with placebo in adult patients with moderate-to-severe plaque-type psoriasis. Efficacy and safety outcomes will be evaluated to select an appropriate orismilast dose for subsequent Phase 3 studies.
After a Screening visit up to 28 days before Baseline, 202 patients were assigned randomly in a 1:1:1:1 ratio to receive 1 of the 3 orismilast doses (20 mg, 30 mg, or 40 mg) or placebo twice daily (BID) for 16 weeks, with a 4-week Follow-up visit. Administration will begin at Baseline with a dose titration period. The maximum duration of study participation was approximately 24 weeks.
At Baseline and each visit from Week 4 onwards, PASI, BSA, IGA, and PSS were assessed. Quality of life was assessed by administration of DLQI at Baseline and at Weeks 16 and 20 visits. Additional efficacy parameters include: an ss-IGA, a Physician Global Assessment of fingernail psoriasis (PGA-F), and patient's joint pain NRS for those with a diagnosis of PsA. These parameters were assessed at Baseline and Weeks 16 and 20. Safety evaluations include adverse events (Aes), laboratory and vital sign assessments, physical examinations, as well as mood change evaluation by patient (Hospital Anxiety and Depression Scale) and suicidal ideation evaluation by Investigator (C-SSRS). A panel of cardiovascular risk factors were assessed at Baseline and Week 16. […]

The mark [1] stands for this setting: post-hoc group 20 mg BID (<100 kg)/30 mg BID (≥100 kg), NRI.

`O=C(Cc1c(Cl)c[n+]([O-])cc1Cl)c1ccc(OC(F)F)c2c1OC1(CCS(=O)(=O)CC1)O2` [orismilast, 2-(3,5-dichloro-1-oxidopyridin-1-ium-4-yl)-1-[7-(difluoromethoxy)-1′,1′-dioxospiro[1,3-benzodioxole-2,4′-thiane]-4-yl]ethanone]: the “mean percentage change in PASI from baseline to Week 16” value is, setting by setting: (20 mg BID) −52.6%; (30 mg BID) −61.2%; (40 mg BID) −63.7%. Moreover, the PASI-75 responders reads like this: (20 mg BID, NRI) 35%; (30 mg BID, NRI) 44%; under setting [1], 46%. In addition, the PASI-90 responders is, setting by setting: (20 mg BID, NRI) 23%; (30 mg BID, NRI) 20%; under setting [1], 29%. In addition, the PASI-100 responders runs as follows: (20 mg BID, NRI) 8%; (30 mg BID, NRI) 8%; under setting [1], 10%. The “efficacy of post-hoc group 20 mg BID (<100 kg)/30 mg BID (≥100 kg) relative to all pre-specified treatment arms” value (NRI) was “improved”. Also, the “efficacy of the 20 mg BID dose vs the 30 mg BID dose in patients weighing ≥100 kg” value (PASI50, PASI75, PASI90, weeks 4, 8, 12 and 16) is recorded as “less efficacious”. For the same compound, the “efficacy of the 20 mg BID dose vs the 30 mg BID dose in patients weighing <100 kg at baseline” value (PASI75 and in particular PASI90) was “(similar or) more efficacious”. The “treatment effect versus placebo, percentage change in PASI from baseline to Week 16 (primary endpoint)” value (all doses (20, 30, 40 mg BID)) was “statistically significant treatment effect”. Further, the “efficacy (PASI50, PASI75, PASI90) of the 30 mg BID dose in patients weighing ≥100 kg compared to <100 kg at baseline” value (weeks 4, 8, 12 and 16) was “consistently higher”.
